Assay results: PMC10009108, “Design, synthesis and screening of indole acetic acid-based tri-azo moieties as antioxidants, anti-microbial and cytotoxic agents” (Frontiers in Pharmacology, 2023)
≈ marks a conversion by molar mass, not a printed value.

Columns and labels:
[1] = test system: Aspergillus flavus (FCBP-0064); assay: Antifungal disc diffusion assay; assay type: cell-based; design: key to Zone of inhibition, A. flavus: --- = no anti-fungal activity; conditions: 20 μg/disc
Description: (§1) The antifungal response to these chemical moieties was evaluated through a procedure designated by ([Zahra et al., 2017]). Amphotericin B (4 mg/mL DMSO) is used as + ve control and DMSO as-ve one (5 μL/disc). Sterile SDA-coated plates were used, on which 100 µL of suspension of spores for each strain (previously reaped-in-Tween-20 solution) was spread. Discs of sterile filter paper containing 5 µL of sample solution (4 mg/mL DMSO) were kept on plates and incubated for 2 days at 28°C. Zones of inhibition were recorded.
(§2) The Synthetic compound library was subjected to an antifungal assay using five different strains of Fungai, i.e., Fusarium solani (FCBP-0291), Aspergillus fumigatus (FCBP-66), Aspergillus flavus (FCBP-0064), Aspergillus niger (FCBP-0198) and Mucor species (FCBP-0300). Amphotericin B was the standard drug used. […] The outcomes are concise in Table 5.

[2] = test system: Mucor species (FCBP-0300); assay: Antifungal disc diffusion assay; assay type: cell-based; design: key to Zone of inhibition, Mucor: --- = no anti-fungal activity; conditions: 20 μg/disc
Description: as §1, §2

[3] = test system: Aspergillus fumigatus (FCBP-66); assay: Antifungal disc diffusion assay; assay type: cell-based; design: key to Zone of inhibition, A. fumigatus: --- = no anti-fungal activity; conditions: 20 μg/disc
Description: as §1, §2

[4] = test system: Fusarium solani (FCBP-0291); assay: Antifungal disc diffusion assay; assay type: cell-based; design: key to Zone of inhibition, F. solani: --- = no anti-fungal activity
Description: as §1, §2

[5] = test system: Streptomyces 85 E strains; assay: Protein kinase inhibition assay; assay type: cell-based; design: key to Bald zone: Active = Bacterial activity; --- = no activity; conditions: Sample Concentration = 20 μg/mL; Surfactin B 20 μg/mL
[6] = test system: Escherichia coli (ATCC-25922); assay: Antibacterial assay, micro broth dilution; assay type: cell-based; design: key: Active = Bacterial activity; --- = no activity; conditions: 25 μg/mL
[7] = test system: Pseudomonas aeruginosa (ATCC-15442); assay: Antibacterial assay, micro broth dilution; assay type: cell-based; design: key: Active = Bacterial activity; --- = no activity; conditions: 25 μg/mL
in vivo = assay: in vivo
Description: The cytotoxic evaluation was accomplished using the decorum designed by ([Khan et al., 2011]). To a plate of 96 wells, artificial seawater and nauplii were added. Test samples were taken in wells (40, 20, 10, 5 μg/mL) after making up the final volume with seawater, the plates were left uncovered under the lamp, and after 24 h, the number of surviving larvae was calculated. For samples having ≥50% mortality, the median lethal conc was calculated using the table curve software, Doxorubicin was used as + ve control, and DMSO was the -ve. The percentage of killed organisms was found using the formula. Percentage Mortality=No of dead shrimps÷Total Number of Shrimps×100
The results of all the experiments were articulated as mean ± SD. Each test was performed in triplicate. TAC assay was analyzed by one-way analysis of variance (ANOVA) following DUNCAN’S test using the statistical package for social sciences 18 and p < 0.05 was considered as significant where appropriate. For samples having ≥50% mortality, the median lethal concentration (LC50) was calculated using the table curve software.
This evaluation test forms the basis for the bioactive scanning of compounds for their potential as anti-cancer moieties, to be investigated on a large scale ([Amanullah et al., 2012]). […] Similarities between Artemia salina and mammalian cells have been reported due to DNA-dependent RNA polymerases ([Birndorf et al., 1975]). These Schiff bases were investigated for their cytotoxic potential. […] Doxorubicin was used as the positive control.

[8] = test system: Klebsiella pneumoniae (ATCC-1705); assay: Antibacterial assay, micro broth dilution; assay type: cell-based
Text: (§3) The micro broth dilution method was used to establish the antibacterial potential of test samples against Staphylococcus aureus (ATCC-6538), Bacillus subtilis (ATCC-6633), Escherichia coli (ATCC-25922), Klebsiella pneumoniae (ATCC-1705), and Pseudomonas aeruginosa (ATCC-15442) and for the resistant strains of MRSA Staphylococcus aureus, P. aeruginosa and Escherichia coli. The procedure used is described by ([Sarker et al., 2007]). Bacterial inoculum was formed under aseptic conditions keeping the density near 5 × 10^4 CFU/mL in pre-autoclaved nutrient broth. Test samples of an aliquot of 5 µL were shifted to labeled wells of 96 well plates, and after that addition of 195 µL of nutrient broth; was accomplished. After that, a 2-fold serial dilution of every sample was arranged to get final concentrations of 12.5 μg/mL. Then, with the help of a micropipette, 195 µL of bacterial culture of respective strains was poured into each well; further advancement was incubating of plates for 30 min at the temperature of 37°C. […] Incubation of plates was again carried out at 37°C for 1 day, absorbance was noted, and net change in turbidity was the difference between two values of absorbance.
(§4) Schiff base tri-azo compounds were investigated for antibacterial potential. […] 6.25 μg/mL for 5b and 5g, and the least, Table 4 3.12 μg/mL was for 5f. […] Substituents with electron-withdrawing attributes, e.g., -NO2, -Cl, -OH on the aromatic ring, assert a great impact on the antibacterial activity of synthetic compounds. It is also observed that an increase in the number of -OH groups tend to enhance the activity ([Hosamani and Shingalapur, 2011]). Due to the difference in cell-wall composition of Gram + ve and -ve bacteria, different compounds show different features towards the same micro-organism ([Goszczyn’ska et al., 2015]).

[9] = test system: Aspergillus niger (FCBP-0198); assay: Antifungal disc diffusion assay; assay type: cell-based; design: key to Zone of inhibition, A. niger: --- = no anti-fungal activity; conditions: 20 μg/disc
Description: as §1, §2

resistant E.coli = assay: Antibacterial assay, resistant strains; assay type: cell-based, Escherichia coli; design: key to Antibacterial activity, resistant E.coli: Activity: Positive = have anti-bacterial activity; --- = no anti-bacterial activity; conditions: 25 μg/mL; resistant strain
Text: as §3, §4

resistant P. aeruginosa = assay: Antibacterial assay, resistant strains; assay type: cell-based; design: key to Antibacterial activity, resistant P. aeruginosa: Activity: Positive = have anti-bacterial activity; --- = no anti-bacterial activity; conditions: 25 μg/mL; resistant strain
Text: as §3, §4

resistant S. aureus = assay: Antibacterial assay, resistant strains; assay type: cell-based, Staphylococcus aureus; design: key to Antibacterial activity, resistant S. aureus: Activity: Positive = have anti-bacterial activity; --- = no anti-bacterial activity; conditions: 25 μg/mL; resistant strain
Text: as §3, §4

MRSA = assay: Antibacterial assay, resistant strains; assay type: cell-based, Staphylococcus aureus; conditions: 25 μg/mL; resistant strain
[10] = test system: Staphylococcus aureus (ATCC-6538); assay: Antibacterial assay, micro broth dilution; assay type: cell-based; design: key: Active = Bacterial activity; --- = no activity; conditions: 25 μg/mL

| SMILES | Zone of inhibition, A. flavus [1] | Zone of inhibition, Mucor [2] | Zone of inhibition, A. fumigatus [3] | Zone of inhibition, F. solani ([4]; 20 μg/disc) | Bald zone [5] | Antibacterial activity, E. coli: Activity [6] | Antibacterial activity, Pseudomonas aeruginosa: Activity [7] | LC50 at 24 h (in vivo) | MIC ([8]; ATCC1705) | MIC ([8]; ATCC1705, 24 h) | Zone of inhibition, A. niger [9] | Antibacterial activity, resistant E.coli: Activity (resistant E.coli) | Antibacterial activity, resistant P. aeruginosa: Activity (resistant P. aeruginosa) | Antibacterial activity, resistant S. aureus: Activity (resistant S. aureus) | Antibacterial activity, MRSA: Activity (MRSA) | Antibacterial activity, S. aureus: Activity [10] | antifungal activity against Fusarium solani (in words) [4] | zone of inhibition at 20 µg/disc ([4]; Fusarium solani, 20 μg/disc, read-out: Zone of inhibition, F. solani) |
| --- | --- | --- | --- | --- | --- | --- | --- | --- | --- | --- | --- | --- | --- | --- | --- | --- | --- | --- |
| S=c1[nH]nc(Cc2c[nH]c3ccccc23)n1N=Cc1cccc(Cl)c1 [Compound 5f] | --- | --- | --- | --- | --- | --- | --- | 5.7 µg/mL (≈ 15.5 µM) | 3.12 µg/mL (≈ 8.48 µM) | 3.12 µg/mL (≈ 8.49 µM) | --- | --- | --- | --- | Active | Active |  |  |
| COc1cccc(C=Nn2c(Cc3c[nH]c4ccccc34)n[nH]c2=S)c1 [Compound 5b] | --- | --- | --- | --- | 10.5 mm | --- | Active | 14.1 µg/mL (≈ 38.9 µM) | 6.25 µg/mL (≈ 17.2 µM) |  | --- | --- | --- | --- | Active | --- |  |  |
| Oc1ccc(C=Nn2c(Cc3c[nH]c4ccccc34)n[nH]c2=S)cc1 [Compound 5e] | --- | --- | --- | 6 mm | --- | Active | Active | 14.1 µg/mL (≈ 40.5 µM) | 12.5 µg/mL (≈ 35.8 µM) |  | --- | --- | --- | --- | Active | --- | active | > 6 mm |
| O=[N+]([O-])c1ccc(C=Nn2c(Cc3c[nH]c4ccccc34)n[nH]c2=S)cc1 [Compound 5d] | --- | --- | --- | --- | --- | Active | --- | 5.7 µg/mL (≈ 15.1 µM) | 12.5 µg/mL (≈ 33 µM) |  | --- | --- | --- | --- | Active | --- |  |  |
| Oc1cccc(C=Nn2c(Cc3c[nH]c4ccccc34)n[nH]c2=S)c1 [Compound 5a] | --- | --- | --- | --- | 9 mm |  | Active | 11.2 µg/mL (≈ 31.9 µM) | 12.5 µg/mL (≈ 35.8 µM) |  | --- |  |  |  | Active |  |  |  |
| S=c1[nH]nc(Cc2c[nH]c3ccccc23)n1N=Cc1ccc(Cl)cc1 [Compound 5c] | --- | --- | --- | --- | --- | Active | --- | 5.7 µg/mL (≈ 15.5 µM) | 12.5 µg/mL (≈ 34 µM) |  | --- | --- | --- | --- | Active | --- |  |  |
